In patent US20190367516A1 (Bayer Pharma Aktiengesellschaft, priority 2015, published 2019):
Read-outs that look alike come from different tables or passages of the source.

Columns and labels:
[1] = biological target: T1, human M2 receptor (Homo sapiens, UniProt P08172); format: cell-based; conditions: α >1 = positive cooperativity
T1 sequence (P08172 1-466): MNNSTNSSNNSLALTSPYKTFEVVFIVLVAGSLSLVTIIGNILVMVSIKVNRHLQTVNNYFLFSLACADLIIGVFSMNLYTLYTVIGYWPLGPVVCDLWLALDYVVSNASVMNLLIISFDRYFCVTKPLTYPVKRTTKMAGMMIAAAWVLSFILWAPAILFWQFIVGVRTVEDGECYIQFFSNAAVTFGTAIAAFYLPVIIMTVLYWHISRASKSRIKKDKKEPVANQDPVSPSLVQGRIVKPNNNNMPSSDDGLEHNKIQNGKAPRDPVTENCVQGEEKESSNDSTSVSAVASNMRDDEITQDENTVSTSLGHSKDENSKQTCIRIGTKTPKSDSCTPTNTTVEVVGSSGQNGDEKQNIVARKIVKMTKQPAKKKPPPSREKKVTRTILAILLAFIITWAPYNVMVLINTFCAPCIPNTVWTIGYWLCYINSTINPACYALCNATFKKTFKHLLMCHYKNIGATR

[2] = tested on: anaesthetized rats; assay: Effects on the heart rate in anaesthetized rats (B-9); format: in vivo, rat; conditions: i.v. infusion via jugular vein over 5 min, dose not given, in some cases means of several determinations
Description: B-9. Effects of the Test Substances on the Heart Rate in Anaesthetized Rats
Male rats of the strain (WI) WU Br from the breeder Charles River are anaesthetized initially with a 4-5% isoflurane inhalation for approx. 3 min. Subsequently, anaesthesia is maintained using a 1.5% isoflurane inhalation. For this purpose, the anaesthetized animals are fixed on a heated operating plate. By means of visual inspection and between toe reflex, the depth of anaesthesia is checked.
For the application of the test substance, an i.v. route into the jugular vein is used. A caudal to cranial skin incision is then made longitudinally and both the cervical musculature and the salivary glands are severed. The right common carotid artery is exposed and blood supply is arrested both proximally and distally. Using microinstrumentation, a TIP catheter (1.2 F) is introduced into the vessel in order to measure the arterial pressure and the heart rate.
Initially, both parameters are monitored for 10 min in the basal state without substance addition. The substances to be investigated are dissolved in suitable solvent mixtures and subsequently administered at various dosages to a group of animals in each case via the jugular vein by an infusion pump over 5 min. A solvent-treated group is used as control under the same experimental conditions. The arterial blood pressure and heart rate with substance addition is determined for 20 min. The data are registered with the PowerLab system (AD instruments) and evaluated using the LabChart program (AD instruments).
The values determined in this manner for the percentage decrease in heart rate for individual working examples are given in Table 4 below (in some cases as means of a plurality of independent individual determinations): […]

[3] = biological target: T1, human M2 receptor; conditions: for Efficiency: boosting of the acetylcholine effect at EC20 acetylcholine concentration
[4] = shift of acetylcholine dose-response curve (Allosteric EC50 shift)
[5] = Receptor activity EC50, allosteric potency at EC20 acetylcholine, M2-GIRK1/4 reporter cells, in some cases mean of two or more determinations
[6] = read-out: Efficiency, boosting of the acetylcholine effect at EC20 acetylcholine concentration, M2-GIRK1/4 reporter cells
[7] = shift in the acetylcholine dose-response curve (Allosteric EC50 shift, GraphPad PRISM)
[8] = Receptor activity EC50, M2-GIRK1/4 activation test, acetylcholine at EC20, allosteric potency, in some cases mean values from two or more determinations

Structure (SMILES) | Cooperativity (alpha factor) [1, 4] | EC50 [3, 5] [nM] | Emax [3, 6] [%] | Cooperativity (alpha factor) [1, 7] | EC50 [3, 8] [nM] | Efficiency ([3]; M2-GIRK1/4 reporter cells) [%] | Reduction in heart rate (%) [2] [%] | Emax ([3]; read-out: Efficiency) [%]
O=C(NC(c1ccccc1Cl)C(F)(F)F)c1cn(-c2ccc(F)cc2F)c2nc(N3C[C@@H](O)CC3=O)ccc2c1=O (single isomer, unassigned) [Example 212] | – | – | – | 54 | 41 | – | 11 | –
O=C(NC(c1ccccc1Cl)C(F)(F)F)c1cn(-c2ccc(F)cc2F)c2nc(N3C[C@@H](O)CC3=O)ccc2c1=O (single isomer, unassigned) [Example 213] | – | – | – | 55 | 19 | – | 14 | –
CC(C)(C)[C@@H](NC(=O)c1cn(-c2c(F)cc(F)cc2F)c2nc(N3C[C@@H](O)[C@H](O)C3)ccc2c1=O)C(F)(F)F [Example 349, 7-[(3R,4R)-3,4-Dihydroxypyrrolidin-1-yl]-4-oxo-N-[(2R)-1,1,1-trifluoro-3,3-dimethylbutan-2-yl]-1-(2,4,6-trifluorophenyl)-1,4-dihydro-1,8-naphthyridine-3-carboxamide] | – | – | – | 52 | 4 | – | 14 | 100
CC(NC(=O)c1cn(-c2c(F)cc(F)cc2F)c2nc(N3C[C@@H](O)[C@H](O)C3)ccc2c1=O)C(F)(F)C(F)(F)F (single isomer, unassigned) [Example 550] | 34 | – | – | – | – | – | 13 | 100
O=C(N[C@@H](C1CC1)C(F)(F)F)c1cn(-c2c(F)cccc2F)c2nc(N3C[C@@H](O)CC3=O)ccc2c1=O (single isomer, unassigned) [Example 297] | – | – | – | 47 | 37 | – | 10 | –
CC[C@@H](NC(=O)c1cn(-c2ccc(F)cc2F)c2nc(N3CC[C@H](F)C3)ccc2c1=O)C(F)(F)F [Example 189, 1-(2,4-Difluorophenyl)-7-[(3S)-3-fluoropyrrolidin-1-yl]-4-oxo-N-[(2R)-1,1,1-trifluorobutan-2-yl]-1,4-dihydro-1,8-naphthyridine-3-carboxamide] | – | – | – | 24 | 23 | – | 7 | –
C[C@H](NC(=O)c1cn(-c2c(F)cc(F)cc2F)c2nc(N3C[C@@H](O)CC3=O)ccc2c1=O)C(F)(F)F [Example 330, 7-[(4S)-4-Hydroxy-2-oxopyrrolidin-1-yl]-4-oxo-1-(2,4,6-trifluorophenyl)-N-[(2S)-1,1,1-trifluoropropan-2-yl]-1,4-dihydro-1,8-naphthyridine-3-carboxamide] | – | – | – | 29 | 41 | – | 9 | –
O=C(N[C@H](C1CC1)C(F)(F)F)c1cn(-c2ccc(F)cc2F)c2nc(N3C[C@@H](O)CC3=O)ccc2c1=O [Example 271, N-[(1R)-1-Cyclopropyl-2,2,2-trifluoroethyl]-1-(2,4-difluorophenyl)-7-[(4S)-4-hydroxy-2-oxopyrrolidin-1-yl]-4-oxo-1,4-dihydro-1,8-naphthyridine-3-carboxamide] | – | – | – | 43 | 40 | – | 8 | –
CC[C@@H](NC(=O)c1cn(-c2ccc(F)cc2F)c2nc(N3CC4C(C3)C4(F)F)ccc2c1=O)C(F)(F)F (stereo partly drawn) [Example 28, 7-(6,6-Difluoro-3-azabicyclo[3.1.0]hex-3-yl)-1-(2,4-difluorophenyl)-4-oxo-N-[(2R)-1,1,1-trifluorobutan-2-yl]-1,4-dihydro-1,8-naphthyridine-3-carboxamide] | – | – | – | 25 | 23 | – | 9 | –
O=C(N[C@H](C1CC1)C(F)(F)F)c1cn(-c2c(F)cccc2F)c2nc(N3C[C@@H](O)CC3=O)ccc2c1=O (single isomer, unassigned) [Example 296] | – | – | – | 49 | 28 | – | 11 | –
CC[C@@H](NC(=O)c1cn(-c2c(F)cc(F)cc2F)c2nc(N3C[C@@H](O)CC3=O)ccc2c1=O)C(F)(F)F [Example 325, 7-[(4S)-4-Hydroxy-2-oxopyrrolidin-1-yl]-4-oxo-N-[(2R)-1,1,1-trifluorobutan-2-yl]-1-(2,4,6-trifluorophenyl)-1,4-dihydro-1,8-naphthyridine-3-carboxamide] | – | – | – | 56 | 7 | – | 13 | 93
CCC(NC(=O)c1cn(-c2c(F)cc(F)cc2F)c2nc(N3C[C@@H](O)[C@H](O)C3)ccc2c1=O)C(F)(F)C(F)(F)F (single isomer, unassigned) [Example 523] | 41 | – | – | – | – | – | 15 | 100

Now from value to compound, other results behind:

Cooperativity (alpha factor) [1, 4] | EC50 [3, 5] [nM] | Emax [3, 6] [%] | Cooperativity (alpha factor) [1, 7] | EC50 [3, 8] [nM] | Efficiency ([3]; M2-GIRK1/4 reporter cells) [%] | Structure (SMILES) | Reduction in heart rate (%) [2] [%] | Emax ([3]; read-out: Efficiency) [%]
36 | 2 | 100 | – | – | – | CCC(NC(=O)c1cn(-c2c(F)cc(F)cc2F)c2nc(N3C[C@@H](O)CC3=O)ccc2c1=O)C(F)(F)C(F)(F)F (single isomer, unassigned) [Example 520] | 15 | –
31 | 7 | – | – | – | 92.2 | CC(NC(=O)c1cn(-c2c(F)cc(F)cc2F)c2nc(N3CCNC3=O)ccc2c1=O)C(F)(F)C(F)(F)F (racemic) [Example 541, 4-Oxo-7-(2-oxoimidazolidin-1-yl)-N-[3,3,4,4,4-pentafluorobutan-2-yl]-1-(2,4,6-trifluorophenyl)-1,4-dihydro-1,8-naphthyridine-3-carboxamide] | 14 | –
– | – | – | 13 | 11 | – | O=C(N[C@H](C1CC1)C(F)(F)F)c1cn(-c2c(F)cc(F)cc2F)c2nc(N3CCNC3=O)ccc2c1=O [Example 342, N-[(1R)-1-Cyclopropyl-2,2,2-trifluoroethyl]-4-oxo-7-(2-oxoimidazolidin-1-yl)-1-(2,4,6-trifluorophenyl)-1,4-dihydro-1,8-naphthyridine-3-carboxamide] | 10 | –
32 | 5 | – | – | – | 100.0 | CC[C@H](NC(=O)c1cn(-c2c(F)cc(F)cc2Cl)c2nc(N3C[C@@H](O)CC3=O)ccc2c1=O)C(F)(F)F (single isomer, unassigned) [Example 400] | 11 | –
– | – | – | 39 | 9 | – | O=C(N[C@H](C1CC1)C(F)(F)F)c1cn(-c2c(F)cc(F)cc2F)c2nc(N3C[C@@H](O)CC3=O)ccc2c1=O [Example 386, N-[(1R)-1-Cyclopropyl-2,2,2-trifluoroethyl]-7-[(4S)-4-hydroxy-2-oxopyrrolidin-1-yl]-4-oxo-1-(2,4,6-trifluorophenyl)-1,4-dihydro-1,8-naphthyridine-3-carboxamide] | 13 | –
30 | 9 | 100 | – | – | – | CC(C)(CC(F)(F)F)NC(=O)c1cn(-c2c(F)cc(F)cc2F)c2nc(N3C[C@@H](O)CC3=O)ccc2c1=O [Example 511, 7-[(4S)-4-Hydroxy-2-oxopyrrolidin-1-yl]-4-oxo-N-(4,4,4-trifluoro-2-methylbutan-2-yl)-1-(2,4,6-trifluorophenyl)-1,4-dihydro-1,8-naphthyridine-3-carboxamide] | 10 | –
